The nature of data set [1]: CellTiter-Blue cell viability assay, HEK-293 (24 h). The format is cell-based, human. The settings on record: human, HEK-293 cells, CellTiter-Blue, 24 h incubation, 10 μM test compound, standardised to DMSO control. As to the method: (§1) Human Embryonic Kidney cells (HEK‐293) and human breast cancer cells (MCF‐7, MDA‐MB‐231 and HCC1954) were cultured in complete growth media: […] 1X (Gibco); 10% v/v Fetal Bovine Serum (FBS, Sigma Dorset UK) and L‐glutamine (2 mM, Invitrogen). SW‐480‐WT cells were maintained in selective media made up of Dulbecco's Modified Eagle Medium (Gibco), enriched with […] of Geneticin Selective Antibiotic (G418 Sulfate; Gibco, Thermo Fisher). Cells were incubated at a 5% CO2 atmosphere at 37°C.
(§2) Cells were cultured in 96‐well plates in 90 μL at a seeding density of 1 × 10^6 cells per well. Compound samples were prepared at different concentrations (1 mM, 100 μM, 10 μM, 1 μM, 100 nM, 10 nM) and 10 μL of each concentration was seeded in each well. Two different negative controls were used: DMSO 0.01% and 0.001%. Paclitaxel (30% w/v) was used as a positive control. Cells were treated for 24 h after which 20 μL of CellTitre‐Blue reagent (Promega, Southampton, UK) was added and incubated for 2 h at 37°C in 5% CO2. Fluorescence was measured at 560/590 nm on a Fluorostar Optima plate reader (BMG Labtech, Bucks, UK). Assay end points were normalised to 0% (DMSO only) and fitted to a semilog plot using at least n = 3 technical replicates (n = 6 for DMSO control and paclitaxel control) and N = 3 independent replicates. The curve fit was performed using the GraphPad Prism software and the standard Hill equation.
(§3) In view of previous reports on Hsp90 inhibitors and their effects on cancer cell viability (Eachkoti et al. [2014]) and clonogenicity (Kinzel et al. [2016]), new compounds were tested for inhibition of cell viability within both non‐tumourigenic (HEK‐293) and breast cancer cell lines (MDA‐MB‐231) at a fixed concentration of 10 μM. The well‐established CellTiter‐Blue endpoint assay was used to assess cell viability. New compounds were also assessed in a colony forming assay (MCF‐7 breast cancer cell line), used as an efficacy screening to provide an indication of the inhibition of clonogenicity for these small molecules (Table 1).

Data set [2] deals with HEK-293 cells. The description is as above. The class given is cell-based, human. The note with it: for GI50: Homo sapiens, HEK293, 24 h incubation time. As to the method:
as §1, §2, §3

In data set [3] the test system is MDA-MB-231 cells. Briefly: CellTiter-Blue cell viability assay, MDA-MB-231 (24 h). The format is cell-based, human. The note with it: for GI50 / viability at 10 µM: Homo sapiens, MDA-MB-231, 24 h; for GI50: 24 h incubation time. As to the method:
as §1, §2, §3

The test system of data set [4] is SKBR3 cells. Briefly: Colony forming assay, SKBR3. The format is cell-based, human. The settings on record: 7 days treatment at 10 μM. As to the method:
(§4) Cells were seeded in a 12‐well plate at 400 cells per well. One hour after the seeding of the cells, compounds (1 mM, 100 μM, 10 μM, 1 μM, 100 nM, 10 nM) or vehicle were added into the wells in triplicate (DMSO vehicle 0.1% and 1%). After 7 days, colonies were stained with 350 μL of crystal violet solution, incubated for 30 min at room temperature, then wells were washed in water and dried. At least the best 3 independent experiments out of 5 independent repeats were used to perform the statistical analysis of the results. Colonies were counted by GelCount Colony Counter (Oxford Optronix Ltd.) using the GelCount 1.1.8.0 software. Assay end points were normalised to 0% (DMSO only) and fitted to a semi‐log plot using at least n = 3 technical replicates (n = 6 for DMSO control and N = 3 independent replicates). The curve fit was performed using GraphPad Prism.
(§5) Compound 5d was screened for the ability to inhibit colony formation in additional human cancer cell lines (Table 3). […] Sub‐micromolar IC50 values in HCC1954 and MDA‐MB‐231 cells were derived by testing over a six‐fold log concentration range. To further extend the profile of activity, the effect of 5d on the colorectal adenocarcinoma cell line SW‐480 was studied, with similarly potent effects on colony viability (Table 3).

The test system of data set [5] is BT474 cells. Briefly: Colony forming assay, BT474. The class given is cell-based, human. The settings on record: 7 days treatment at 10 μM. As to the method: as §4, §5
Data set [6] deals with SW-480 cells. Briefly: Colony forming assay, SW-480. The class given is cell-based, human. As to the method: as §1
as §4, with “Prism. […]” for “Prism.”

The subject of data set [7] is MDA-MB-231 cells. The experiment in a line: Colony forming assay, MDA-MB-231. The class given is cell-based, human. As to the method:
as §1
as §4, with “Prism. […]” for “Prism.”

The subject of data set [8] is HCC1954 cells. Briefly: Colony forming assay, HCC1954. The format is cell-based, human. As to the method: as §1
as §4, with “Prism. […]” for “Prism.”

The target of data set [9] is T1, hERG channel (Homo sapiens, UniProt Q12809).
T1 construct: Cyprotex Discovery Ltd., UK
Briefly: hERG channel cardiotoxicity assay (Cyprotex). As to the method: All the selected analogues were calculated to be compliant with the Lipinski rule‐of‐five guidelines for oral bioavailability. Furthermore, in vitro ADME (absorption, distribution, metabolism, excretion) properties were assessed as an outsourced service (Cyprotex Discovery Ltd., UK; part of the EvoTec Group); profiling membrane permeability (Caco‐2 cell model), hERG channel cardiotoxicity, human microsomal stability and turbidometric solubility (Table 4).

For data set [10], the system named is HCC1954, MCF-7 and HEK-293 cells. Briefly: Growth inhibition assay (CellTitre-Blue endpoint), 72 h incubation. The format is cell-based, human. The note with it: paclitaxel positive control, Figure 3. As to the method: as §2, with “equation. […]” for “equation.”
FIGURE 3 Growth inhibition assay (CellTitre‐Blue endpoint) in human breast cancer cell lines HCC1954 and MCF‐7, and non‐tumorigenic HEK‐293 cells for hit compounds 5d and 5e (72 h incubation). Growth inhibition is represented by the percentage of relative fluorescence units standardised to DMSO control. […]

Setting [11] is: CellTiter-Blue, 24 h incubation, 10 μM test compound, standardised to DMSO control.
The mark [12] stands for this setting: CellTiter-Blue, 24 h incubation, 10 μM test compound, standardised to DMSO control, 10 µM.

T1 sequence (Q12809 whole entry): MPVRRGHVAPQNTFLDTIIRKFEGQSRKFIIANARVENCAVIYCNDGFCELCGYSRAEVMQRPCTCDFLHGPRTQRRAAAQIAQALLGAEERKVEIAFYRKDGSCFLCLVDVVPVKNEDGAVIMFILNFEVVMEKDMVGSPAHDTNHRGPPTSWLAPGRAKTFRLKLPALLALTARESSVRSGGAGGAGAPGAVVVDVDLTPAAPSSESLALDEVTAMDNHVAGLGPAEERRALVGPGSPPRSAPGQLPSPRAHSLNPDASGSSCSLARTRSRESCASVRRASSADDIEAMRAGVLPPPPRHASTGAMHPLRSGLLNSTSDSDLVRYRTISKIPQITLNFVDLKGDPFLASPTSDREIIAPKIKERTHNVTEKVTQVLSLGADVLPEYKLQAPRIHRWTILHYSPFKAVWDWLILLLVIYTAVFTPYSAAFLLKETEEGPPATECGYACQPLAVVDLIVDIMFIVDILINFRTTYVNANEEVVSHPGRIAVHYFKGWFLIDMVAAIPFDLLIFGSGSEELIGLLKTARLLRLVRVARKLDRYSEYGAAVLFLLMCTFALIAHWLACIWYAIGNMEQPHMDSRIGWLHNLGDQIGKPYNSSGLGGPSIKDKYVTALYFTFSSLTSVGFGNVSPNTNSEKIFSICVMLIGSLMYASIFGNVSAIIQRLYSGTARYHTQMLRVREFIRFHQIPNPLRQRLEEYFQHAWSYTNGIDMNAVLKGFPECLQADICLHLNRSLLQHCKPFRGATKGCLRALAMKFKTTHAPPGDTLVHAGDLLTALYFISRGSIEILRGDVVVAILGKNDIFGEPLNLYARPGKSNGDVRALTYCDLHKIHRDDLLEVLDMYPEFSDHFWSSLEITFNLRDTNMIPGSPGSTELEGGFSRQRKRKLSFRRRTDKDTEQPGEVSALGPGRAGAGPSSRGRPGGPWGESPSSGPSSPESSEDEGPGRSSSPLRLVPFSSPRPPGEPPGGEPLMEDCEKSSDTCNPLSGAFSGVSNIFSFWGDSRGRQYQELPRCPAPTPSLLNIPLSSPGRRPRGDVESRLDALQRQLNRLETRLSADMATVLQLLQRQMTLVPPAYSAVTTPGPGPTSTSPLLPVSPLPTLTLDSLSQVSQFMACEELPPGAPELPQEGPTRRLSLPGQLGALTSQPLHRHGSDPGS

Consider `COc1ccc(C2NC(=O)NC(C)=C2C(=O)OCc2ccc3c(c2)OCO3)c(F)c1` (stereo not shown) [Compound 5d, Benzo[d][1,3]dioxol‐5‐ylmethyl‐4‐(2‐Fluoro‐4‐Methoxyphenyl)‐6‐Methyl‐2‐Oxo‐1,2,3,4‐Tetrahydropyrimidine‐5‐Carboxylate], for which the viability at 24 h, 10 µM in data set [1] worked out at 99.9 ± 4.53%. Besides, the GI50 was 92.4 µM in data set [2] and 79.3 µM in data set [3]. Also, the viability at 10 µM in [3] (setting [11]) came to 86.3 ± 3.8%. The “Percentage of surviving colonies, SKBR3” value in [4] is 94.4% ± 2.1. Moreover, in [5], the “Percentage of surviving colonies, BT474” value is 80.4% ± 8.0. Further, the “Percentage of surviving colonies, SW-480” value in data set [6] (7 days treatment at 10 μM) was 57.9% ± 2.0. Besides, the IC50 in [6] (Homo sapiens, SW480, read-out: Colony formation IC50, SW-480) was 1.21 µM; in data set [7] (Homo sapiens, MDA-MB-231, read-out: Colony formation IC50, MDA-MB-231), 0.62 µM; in data set [8] (Homo sapiens, HCC1954, read-out: Colony formation IC50, HCC1954) it was 0.56 µM; in data set [9] it was over 25 µM. Besides, the “Percentage of surviving colonies, MDA-MB-231” value in [7] (7 days treatment at 10 μM) was 11.9% ± 2.9. The “Percentage of surviving colonies, HCC1954” value in [8] (7 days treatment at 10 μM) is 8.8% ± 4.0. Besides, the “Growth inhibitory effect / effect on cell viability, longer incubation” value in data set [10] is “devoid of significant effects on cell viability”.

With `COc1ccc(COC(=O)C2=C(C)NC(=O)NC2c2ccc(Cl)cc2)cc1C` (stereo not shown) [Compound 5e, 4‐Methoxy‐3‐Methylbenzyl‐4‐(4‐Chlorophenyl)‐6‐Methyl‐2‐Oxo‐1,2,3,4‐Tetrahydropyrimidine‐5‐Carboxylate], the viability at 24 h, 10 µM in data set [1] turned out to be 82%. The “% Viability (HEK-293, 10 μM)” value in data set [2] (setting [12]) came to 82.07 ± 1.28%. For the same compound, the GI50 in data set [2] amounted to 86.3 µM; in data set [3], 12.6 µM. Besides, the “% Viability (MDA-MB-231, 10 μM)” value in [3] (setting [12]) is reported as 79.43 ± 8.8%. Moreover, the viability at 10 µM in data set [3] (setting [11]) was under 80%. In data set [9], this compound yielded an IC50 of over 25 µM. In addition, the “Growth inhibitory effect / effect on cell viability, longer incubation” value in data set [10] was “comparable to the cytotoxic drug control paclitaxel”.

Values taken from paper PMC12704579, “New Anticancer 4‐Aryldihydropyrimidinone‐5‐Carboxylates Targeting Hsp90” (Chemical Biology & Drug Design, 2025).
